Measured values taken from US7928098B2, “Therapeutic and/or preventive agents for a sleep disorder” (Kyowa Hakko Kirin Co., Ltd., priority 2005, dated 2011).

Structure (SMILES) | melting point
O=C(Nc1nc(-c2ccco2)c(C(=O)c2ccccn2)s1)c1cncc(Br)c1 [Compound 134, 5-Bromo-N-[4-(2-furyl)-5-(pyridin-2-ylcarbonyl)thiazol-2-yl]pyridine-3-carboxamide] | 259 to 262 °C
O=C(CN1CCSCC1)Nc1nc(-c2ccco2)c(C(=O)c2ccccn2)s1 [Compound 190, N-[4-(2-Furyl)-5-(pyridin-2-ylcarbonyl)thiazol-2-yl]-2-thiomorpholinoacetamide] | 148 to 149 °C
O=C(Nc1nc(-c2ccco2)c(C(=O)C2CCOCC2)s1)c1cccs1 [Compound 422, N-[4-(2-Furyl)-5-(tetrahydropyran-4-ylcarbonyl)thiazol-2-yl]thiophene-2-carboxamide] | 231 to 232 °C
Cc1cc(C(=O)Nc2nc(-c3ccco3)c(C(=O)c3ccccn3)s2)c(C)o1 [Compound 148, N-[4-(2-Furyl)-5-(pyridin-2-ylcarbonyl)thiazol-2-yl]-2,5-dimethylfuran-3-carboxamide] | 195 to 198 °C
COCC(=O)Nc1nc(-c2ccco2)c(C(=O)C2CCOCC2)s1 [Compound 435, N-[4-(2-Furyl)-5-(tetrahydropyran-4-ylcarbonyl)thiazol-2-yl]-2-methoxyacetamide] | 148 to 149 °C
Cc1cc(C(=O)Nc2nc(-c3ccco3)c(C(=O)c3ccccn3)s2)no1 [Compound 151, N-[4-(2-Furyl)-5-(pyridin-2-ylcarbonyl)thiazol-2-yl]-5-methylisoxazole-3-carboxamide] | 209 to 213 °C
N#Cc1ccc(C(=O)Nc2nc(-c3ccco3)c(C(=O)C3CCOCC3)s2)cc1 [Compound 379, 4-Cyano-N-[4-(2-furyl)-5-(tetrahydropyran-4-ylcarbonyl)-thiazol-2-yl]benzamide] | 231 to 234 °C
Cc1ncccc1C(=O)c1sc(NC(=O)c2ccncc2)nc1-c1ccco1 [Compound 217, N-[4-(2-Furyl)-5-(2-methylpyridin-3-ylcarbonyl)thiazol-2-yl]pyridine-4-carboxamide] | 230 to 234 °C
O=C(Nc1nc(-c2ccco2)c(C(=O)c2ccn(Cc3ccccc3)c2)s1)c1ccncc1 [Compound 263, N-[5-(1-Benzylpyrrol-3-ylcarbonyl)-4-(2-furyl)thiazol-2-yl]pyridine-4-carboxamide] | 175 to 178 °C
COC1(CN2CCN(CC(=O)Nc3nc(-c4ccco4)c(C(=O)C4CCOCC4)s3)CC2)CC1 [Compound 472, N-[4-(2-Furyl)-5-(tetrahydropyran-4-ylcarbonyl)thiazol-2-yl]-2-{4-[(1-methoxycyclopropyl)methyl]piperazin-1-yl}acetamide] | 155 to 157 °C
O=C(c1ccccn1)c1sc(NC(=O)C2CCN(Cc3cccnc3)CC2)nc1-c1ccco1 [Compound 105, N-[4-(2-Furyl)-5-(pyridin-2-ylcarbonyl)thiazol-2-yl]-1-(pyridin-3-ylmethyl)piperidine-4-carboxamide] | 208 to 209 °C
Cc1ccc(C(=O)c2sc(NC(=O)c3ccoc3)nc2-c2ccco2)cn1 [Compound 223, N-[4-(2-Furyl)-5-(2-methylpyridin-5-ylcarbonyl)thiazol-2-yl]furan-3-carboxamide] | 229 to 231 °C
CC(=O)c1cccc(C(=O)Nc2nc(-c3ccco3)c(C(=O)c3ccccn3)s2)c1 [Compound 115, 3-Acetyl-N-[4-(2-furyl)-5-(pyridin-2-ylcarbonyl)thiazol-2-yl]benzamide] | 168 to 169 °C
COC1CCN(CC(=O)Nc2nc(-c3ccco3)c(C(=O)C3CCOCC3)s2)CC1 [Compound 450, N-[4-(2-Furyl)-5-(tetrahydropyran-4-ylcarbonyl)thiazol-2-yl]-2-(4-methoxypiperidino)acetamide] | 109 to 111 °C
O=C(Nc1nc(-c2ccco2)c(C(=O)C2CCOCC2)s1)c1ccccc1F [Compound 371, 2-Fluoro-N-[4-(2-furyl)-5-(tetrahydropyran-4-ylcarbonyl)-thiazol-2-yl]benzamide] | 172 to 176 °C
O=C(Nc1nc(-c2ccco2)c(C(=O)C2CC2)s1)c1ccncc1 [Compound 323, N-[5-(Cyclopropylcarbonyl)-4-(2-furyl)thiazol-2-yl]pyridine-4-carboxamide] | 225 to 230 °C (dec.)
CCN(CC)C(=O)C1CCCN(CC(=O)Nc2nc(-c3ccco3)c(C(=O)c3ccccn3)s2)C1.Cl (stereo not shown) | 180 to 185 °C
O=C(Nc1nc(-c2ccco2)c(C(=O)C2CCOCC2)s1)c1ccc(C(F)(F)F)nc1 [Compound 410, N-[4-(2-Furyl)-5-(tetrahydropyran-4-ylcarbonyl)thiazol-2-yl]-2-(trifluoromethyl)pyridine-5-carboxamide] | 217 to 222 °C
O=C(COc1ccccc1)Nc1nc(-c2ccco2)c(C(=O)C2CCOCC2)s1 [Compound 434, N-[4-(2-Furyl)-5-(tetrahydropyran-4-ylcarbonyl)thiazol-2-yl]-2-phenoxyacetamide] | 148 to 150 °C
Cn1ccc(C(=O)c2sc(NC(=O)c3ccncc3)nc2-c2ccco2)cc1=O [Compound 274, N-[4-(2-Furyl)-5-(1-methyl-2-oxo-1,2-dihydropyridin-4-ylcarbonyl)thiazol-2-yl]pyridine-4-carboxamide] | 243 to 255 °C (dec.)

Structure (SMILES) | melting point
O=C(Nc1nc(-c2ccco2)c(C(=O)c2ccn(Cc3ccccc3)c(=O)c2)s1)c1ccncc1 [Compound 278, N-[5-(1-Benzyl-2-oxo-1,2-dihydropyridin-4-ylcarbonyl)-4-(2-furyl)thiazol-2-yl]pyridine-4-carboxamide] | 288 to 291 °C
CCCC(=O)c1sc(NC(=O)C2CC2)nc1-c1ccco1 [Compound 292, N-[5-Butyryl-4-(2-furyl)thiazol-2-yl]cyclopropanecarboxamide] | 170 to 172 °C
CCOC(=O)Nc1nc(-c2ccco2)c(C(=O)c2ccccn2)s1 [Compound 158, Ethyl N-[4-(2-furyl)-5-(pyridin-2-ylcarbonyl)thiazol-2-yl]carbamate] | 158 to 159 °C
O=C(Nc1nc(-c2ccco2)c(C(=O)C2CCOCC2)s1)c1ccccc1 [Compound 362, N-[4-(2-Furyl)-5-(tetrahydropyran-4-ylcarbonyl)thiazol-2-yl]benzamide] | 221 to 222 °C
O=C(Nc1nc(-c2ccco2)c(C(=O)C2CCC2)s1)c1ccncc1 [Compound 330, N-[5-(Cyclobutylcarbonyl)-4-(2-furyl)thiazol-2-yl]pyridine-4-carboxamide] | 227 to 235 °C (dec.)
CC(C)n1nc(-c2sc(NC(=O)c3ccncc3)nc2-c2ccco2)ccc1=O [Compound 39, N-[4-(2-Furyl)-5-(1-isopropyl-6-oxo-1,6-dihydropyridazin-3-yl)thiazol-2-yl]pyridine-4-carboxamide] | 190 to 194 °C
O=C(Nc1nc(-c2ccco2)c(C(=O)c2ccccn2)s1)OC1CCOCC1 [Compound 161, 4-Tetrahydropyranyl N-[4-(2-furyl)-5-(pyridin-2-ylcarbonyl)thiazol-2-yl]carbamate] | 144 to 145 °C
O=C(Nc1nc(-c2ccco2)c(C(=O)c2ccncc2)s1)c1ccncc1 [Compound 236, N-[4-(2-Furyl)-5-(pyridin-4-ylcarbonyl)thiazol-2-yl]pyridine-4-carboxamide] | 276 to 285 °C
COc1ccc(C(=O)Nc2nc(-c3ccco3)c(C(=O)c3ccccn3)s2)cc1 [Compound 110, N-[4-(2-Furyl)-5-(pyridin-2-ylcarbonyl)thiazol-2-yl]-4-methoxybenzamide] | 187 to 188 °C
O=C(Nc1nc(-c2ccco2)c(C(=O)C2CCOCC2)s1)c1cccc(F)c1F [Compound 394, 2,3-Difluoro-N-[4-(2-furyl)-5-(tetrahydropyran-4-ylcarbonyl)thiazol-2-yl]benzamide] | 154 to 160 °C
COc1ccc(C(=O)Nc2nc(-c3ccco3)c(C(=O)c3ccccn3)s2)cc1OC [Compound 111, N-[4-(2-Furyl)-5-(pyridin-2-ylcarbonyl)thiazol-2-yl]-3,4-dimethoxybenzamide] | 169 to 170 °C
Cn1c(-c2sc(NC(=O)c3ccccc3)nc2-c2ccco2)cc2ccccc21 [Compound 36, N-[4-(2-Furyl)-5-(1-methylindol-2-yl)thiazol-2-yl]benzamide] | 195 to 196 °C
COCC(=O)c1sc(NC(=O)c2ccc(Cl)nc2)nc1-c1ccco1 [Compound 310, 2-Chloro-N-[4-(2-furyl)-5-(methoxyacetyl)thiazol-2-yl]pyridine-5-carboxamide] | 174 to 183 °C
O=C(Nc1nc(-c2ccco2)c(C(=O)c2ccccn2)s1)c1ccno1 [Compound 150, N-[4-(2-Furyl)-5-(pyridin-2-ylcarbonyl)thiazol-2-yl]isoxazole-5-carboxamide] | 223 to 230 °C
O=C(Nc1nc(-c2ccco2)c(C(=O)c2ccccn2)s1)c1ccn(Cc2ccccc2)c(=O)c1 [Compound 140, 1-Benzyl-N-[4-(2-furyl)-5-(pyridin-2-ylcarbonyl)thiazol-2-yl]-2-oxo-1,2-dihydropyridine-4-carboxamide] | 269 to 270 °C
CN1CCN(c2ccc(C(=O)c3sc(NC(=O)c4ccncc4)nc3-c3ccco3)cn2)CC1 [Compound 232, N-{4-(2-Furyl)-5-[2-(4-methylpiperazin-1-yl)pyridin-5-ylcarbonyl]thiazol-2-yl}pyridine-4-carboxamide] | 195 to 205 °C
Cc1cnc(C(=O)Nc2nc(-c3ccco3)c(C(=O)c3ccccn3)s2)cn1 [Compound 138, N-[4-(2-Furyl)-5-(pyridin-2-ylcarbonyl)thiazol-2-yl]-5-methylpyrazine-2-carboxamide] | 208 to 209 °C
O=C(Nc1nc(-c2ccco2)c(C(=O)c2nccs2)s1)c1ccncc1 [Compound 255, N-[4-(2-Furyl)-5-(thiazol-2-ylcarbonyl)thiazol-2-yl]pyridine-4-carboxamide] | 228 to 240 °C
O=C(Nc1nc(-c2ccco2)c(C(=O)c2cccnn2)s1)c1ccncc1 [Compound 283, N-[4-(2-Furyl)-5-(pyridazine-3-ylcarbonyl)thiazol-2-yl]pyridine-4-carboxamide] | 280 to 281 °C
Cn1cc(-c2sc(NC(=O)c3ccncc3)nc2-c2ccco2)ccc1=O [Compound 38, N-[4-(2-Furyl)-5-(1-methyl-2-oxo-1,2-dihydropyridin-5-yl)thiazol-2-yl]pyridine-4-carboxamide] | 294 to 295 °C
